Experimental data taken from US20260250318A1, “COMPOSITIONS AND METHODS FOR CROSSING THE BLOOD BRAIN BARRIER” (VOYAGER THERAPEUTICS, INC., priority 2022, published 2026).

Legend:
Conditions in all cases: synthetic library passage 3, intravenous, relative to wild-type AAV9
[1] = system: brain, spinal cord, and DRG of the NHPs; experiment: NGS fold enrichment of synthetic library (passage 3) in NHPs, first cross-species screen; type: in vivo, cynomolgus macaques (Macaca fascicularis)
In short: (§1)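 Fold enrichment versus wild-type AAV9 was derived by NGS of RT-PCR-amplified RNA from nervous tissue, collected e.g. 28 days after IV dosing […]. The library (passage 3) was given to two NHPs aged 2-4 years and to 6-8-week BALB/c and C57Bl/6 mice (n=3 each).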

brain [2] = experiment: NGS fold enrichment of synthetic library (passage 3) in C57Bl/6 mice, first cross-species screen; type: in vivo
In short: as §1

brain [3] = experiment: NGS fold enrichment of synthetic library (passage 3) in BALB/c mice, first cross-species screen; type: in vivo
In short: as §1

[4] = RNA from spinal cord of NHPs, NGS
[5] = RNA from brain of C57Bl/6 mice, NGS
[6] = RNA from brain of BALB/c mice, NGS

| Sequence | Fold enrichment over AAV9 in the brain of NHPs ([1]; RNA NGS, brain of NHPs) | Fold enrichment over AAV9 in the spinal cord of NHPs ([1]; RNA NGS, spinal cord of NHPs) | Fold enrichment over AAV9 in the brain of Mice (C57Bl/6) (brain [2]; RNA NGS, brain of C57Bl/6 mice) | Fold enrichment over AAV9 in the brain of Mice (BALB/c) (brain [3]; RNA NGS, brain of BALB/c mice) | Fold enrichment over AAV9 in the brain of NHPs ([1]; RNA from brain of NHPs, NGS) | Fold enrichment over AAV9 in the spinal cord of NHPs [1, 4] | Fold enrichment over AAV9 in the brain of Mice (C57Bl/6) (brain [2]; [5]) | Fold enrichment over AAV9 in the brain of Mice (BALB/c) (brain [3]; [6]) |
| --- | --- | --- | --- | --- | --- | --- | --- | --- |
| GSGLGRAPVQNQQT | 2.503 fold | 2.214 fold | 0.841 fold | 0.383 fold | – | – | – | – |
| GSGQGIHSSVNQQT | 1.981 fold | 4.873 fold | 0.632 fold | 0.634 fold | – | – | – | – |
| GSGQNQQIGESRMT | – | – | – | – | 1.279 fold | 0.103 fold | 0.890 fold | 0.453 fold |
| GSGYLRESPQNQQT | 2.311 fold | 0.878 fold | 0.331 fold | 0.677 fold | – | – | – | – |
| GAYGMVSSGQNQQT | 1.518 fold | 3.469 fold | 0.732 fold | 0.773 fold | – | – | – | – |
| GSGQVGRLLQNQQT | 1.899 fold | 1.762 fold | 0.773 fold | 0.748 fold | – | – | – | – |
| GSGGTSVHQQNQQT | 1.629 fold | 0.000 fold | 0.585 fold | 0.195 fold | – | – | – | – |
| GSRNGHAVGQNQQT | 1.574 fold | 2.688 fold | 0.434 fold | 0.939 fold | – | – | – | – |
| GSGQNQKILTLDQT | 1.080 fold | 0.371 fold | 0.291 fold | 0.314 fold | – | – | – | – |
| GSGHAKAVGQNQQT | 1.081 fold | 4.357 fold | 0.703 fold | 0.824 fold | – | – | – | – |
| GSGSHRDVSQNQQT | 2.843 fold | 4.022 fold | 0.626 fold | 0.550 fold | – | – | – | – |
| GSGMPIRNVQNQQT | 1.584 fold | 0.138 fold | 0.684 fold | 0.631 fold | – | – | – | – |
| GSGQVAYAQGNQQT | – | – | – | – | 1.259 fold | 1.309 fold | 0.734 fold | 0.313 fold |
| GAVGHSYSGQNQQT | 1.706 fold | 0.808 fold | 0.306 fold | 0.536 fold | – | – | – | – |
| GNVTTQKSGQNQQT | 1.122 fold | 2.546 fold | 1.215 fold | 0.922 fold | – | – | – | – |
| GSGQNQQSANKILT | – | – | – | – | 1.331 fold | 3.789 fold | 0.894 fold | 1.236 fold |
| GSGLLHGKLQNQQT | 2.032 fold | 2.521 fold | 1.068 fold | 0.917 fold | – | – | – | – |
| GSGDLVVSTQNQQT | 3.874 fold | 1.177 fold | 0.411 fold | 0.273 fold | – | – | – | – |
| GSDHSHRGGQNQQT | – | – | – | – | 1.174 fold | 0.504 fold | 0.818 fold | 0.331 fold |
| GERAFPTSGQNQQT | 1.775 fold | 6.515 fold | 0.972 fold | 0.362 fold | – | – | – | – |
| GSGQNQYLRLELQT | 1.101 fold | 0.000 fold | 0.416 fold | 0.839 fold | – | – | – | – |
| GSGTSGKTGKNQQT | – | – | – | – | 1.333 fold | 4.033 fold | 0.358 fold | 0.676 fold |
| GSGQNQQKLSSMST | – | – | – | – | 1.286 fold | 1.586 fold | 1.160 fold | 1.052 fold |
| GSGQNQQSGRGDLT | 2.019 fold | 6.919 fold | 0.524 fold | 1.152 fold | – | – | – | – |
| GSGSLRDFDQNQQT | 2.120 fold | 6.846 fold | 0.586 fold | 0.272 fold | – | – | – | – |
| GSGDLRISPQNQQT | 2.012 fold | 16.207 fold | 0.620 fold | 0.237 fold | – | – | – | – |
